In this data set the test system is cerebrovascular morphology. The experiment in a line: Cerebrovascular morphology by CD31 staining after ALPL inhibitor treatment. The class given is in vivo. The settings on record: aged (22 m.o.) mice, vs vehicle. The source says:
FIGS. 14A-14D are graphs illustrating flow cytometry quantification of brain endothelial cell uptake of plasma from young mice (3 m.o.) (FIG. 14A), plasma from aged mice (22 m.o.) (FIG. 14B), human holo-transferrin (hu-Tf) from aged mice (FIG. 14C), or transferrin receptor antibody (TfR Ab) from aged mice (FIG. 14D) treated with vehicle (grey) or anti-ALPL (green) via IP injections twice daily for three days, as assessed by % of BECs that are tracer^+ and relative MFI of tracer^+ BECs (for plasma, n=4; for hu-Tf, n=6 vehicle, n=5 anti-ALPL; for TfR Ab, n=9, two-sided t-test, mean+/−s.e.m.). Tracer refers to plasma, hu-Tf, or TfR Ab. FIG. 14E includes representative images of hu-Tf^+ neurons detected in the cortex of mice treated with ALPL inhibitor. Scale bar=40 microns. […] FIG. 14H includes graphs illustrating flow cytometry quantification of brain endothelial cell and brain parenchymal cell uptake of 3 kDa dextran tracer, which probes for disruptions in paracellular permeability, in young mice (3 m.o.) and aged mice (22 m.o.) (n=6 vehicle, n=5 anti-ALPL, two-sided t-test, mean+/−s.e.m.).
Brain tissue processing, immunohistochemistry, and immunofluorescence experiments were performed as described previously12,13. […] National Institutes of Health ImageJ software was used to quantify the percentage of vasculature (CD31 or AQP4) covered by CD13, AQP4, or ALPL, as described previously63. […]

For `COc1ccc(OC)c(S(=O)(=O)Nc2cnc3ccccc3c2)c1` [ALPL inhibitor, 2,5-Dimethoxy-N-(quinolin-3-yl)benzenesulfonamide], the vascular morphology result was “did not perturb”.
